Test [1] deals with Mycobacterium tuberculosis H37Ra (ATCC 25177). Put plainly: Anti-tuberculosis assay (MIC). The conditions noted are these: M. tuberculosis H37Ra, read-out: Antitubercular activity MIC. It is filed as cell-based. On the procedure: The H37Ra strain of Mycobacterium tuberculosis (ATCC 25177) purchased from the American Type Culture Collection (ATCC) was used in the anti-TB bioassay. The anti-tuberculosis assay was based on the one used by Wang et al. ([2015b]). INH (Isoniazid) was used as the positive control, and DMSO was used as a negative control. For the minimum inhibitory concentration (MIC) analysis, 100 μl of Mycobacterium suspension was prepared in a 96-well microtiter plate. A total of […] of double serial dilution of various concentrations of 7 isolated compounds (from 0.08 to 20 μg/mL) alongside the positive control isoniazid (1 to 417 μg/mL) was added to the well.

The subject of the next test is HL60 cells. Put plainly: Cytotoxicity, Cell Counting Kit (CCK-8). The format is cell-based, human. Particulars: for IC50: Homo sapiens; for anticancer activity toward HL60 cells: in words. The procedure: (§1) Cytotoxicity was assessed using the Cell Counting Kit (CCK-8) (Dojindo, Japan) method adopted by Wang et al. ([2015a]). Cancer cell lines used in this study included K562, MCF-7, A549, HuH-7, H1975, HeLa, HL7702, DU145, HL60, MOLT-4. Additionally, a normal cell line, MCF10A, was included. All cell lines were procured from Shanghai Cell Bank, Chinese Academy of Sciences. Cells were routinely grown and maintained in RPMI or DMEM media with 10% Fetal Bovine Serum and 1% penicillin/streptomycin. Various concentrations of seven isolated compounds from Penicillium sp. were dissolved in 100% DMSO with a maximum concentration of 200 μg/mL and serially diluted to a final 0.1% DMSO concentration to treat cells for […]. Taxol was used as a positive control, and DMSO was used as a negative control. Cytotoxicity screening assay experiments were conducted in triplicate to obtain the standard error ± mean value. The percentage of cytotoxicity (IC50) alongside the selectivity index was then calculated using the formula:
(§2) IC50=(absorbance of the cell without treatment -absorbance of cells with treatment/ absorbance of the cell without treatment)× 100
(§3) Selective index (SI)=CC50value for normal cells/IC50for cancer cells

For the next test, the system named is cancer cell lines. The test can be described thus: Anticancer screening, whole cell line panel. The format is cell-based. The conditions noted are these: in-vitro screening, tested cell lines, in words. On the procedure:
as §1, §2, §3

In the next test the test system is MCF-10A. Put plainly: Cytotoxicity, Cell Counting Kit (CCK-8), normal cell line. It is filed as cell-based. The conditions noted are these: Homo sapiens, CCK-8, n = 3, unit from Table S1 title. On the procedure:
as §1, §2, §3

For another test, the system named is K562 cell lines. On the set-up: method as in Hong et al., 2007. The conditions noted are these: averufin from Penicillium flavidorsum SHK1-27; ref Hong et al., 2007; cited from earlier work.
The next test relates to HL7702. Put plainly: Cytotoxicity, Cell Counting Kit (CCK-8). Particulars: Homo sapiens, L02; CCK-8, mean ± SD, n = 3; unit from b62 and Table S1 title (there headed MIC). The format is cell-based. On the procedure: as §1, §2, §3
Background: Tetrazolium dyes change colour on reduction, which living cells bring about.

The subject of another test is MOLT-4. Put plainly: Cytotoxicity, Cell Counting Kit (CCK-8). The format is cell-based. Particulars: Homo sapiens, CCK-8, mean ± SD, n = 3, unit from b62 and Table S1 title (there headed MIC). The procedure: as §1, §2, §3
For a further test, the system named is HeLa. Put plainly: Cytotoxicity, Cell Counting Kit (CCK-8). The format is cell-based. Particulars: Homo sapiens, CCK-8, mean ± SD, n = 3, unit from b62 and Table S1 title (there headed MIC). On the procedure: as §1, §2, §3
In the next test the test system is DU145. The test can be described thus: Cytotoxicity, Cell Counting Kit (CCK-8). Particulars: Homo sapiens, DU-145; CCK-8, mean ± SD, n = 3; unit from b62 and Table S1 title (there headed MIC). It is filed as cell-based. The procedure:
as §1, §2, §3

A further test concerns A549. Put plainly: Cytotoxicity, Cell Counting Kit (CCK-8). It is filed as cell-based. The conditions noted are these: Homo sapiens, CCK-8, mean ± SD, n = 3, unit from b62 and Table S1 title (there headed MIC). The procedure: as §1, §2, §3
The subject of a further test is K562. Put plainly: Cytotoxicity, Cell Counting Kit (CCK-8). Particulars: Homo sapiens, CCK-8, mean ± SD, n = 3, unit from b62 and Table S1 title (there headed MIC). It is filed as cell-based. On the procedure:
as §1, §2, §3

In another test the test system is Huh-7. Put plainly: Cytotoxicity, Cell Counting Kit (CCK-8). The format is cell-based. The conditions noted are these: Homo sapiens, CCK-8, mean ± SD, n = 3, unit from b62 and Table S1 title (there headed MIC). The procedure: as §1, §2, §3
Another test has as its system MCF-7. Put plainly: Cytotoxicity, Cell Counting Kit (CCK-8). It is filed as cell-based. Particulars: Homo sapiens, MCF7; CCK-8, mean ± SD, n = 3; unit from b62 and Table S1 title (there headed MIC). The procedure: as §1, §2, §3
In the next test the test system is H1975. The test can be described thus: Cytotoxicity, Cell Counting Kit (CCK-8). It is filed as cell-based. The conditions noted are these: Homo sapiens, NCI-H1975; CCK-8, mean ± SD, n = 3; unit from b62 and Table S1 title (there headed MIC). On the procedure: as §1, §2, §3
A further test relates to SGC-7901 cell line. Also noted: method as in Yang et al., 2009. Particulars: in words; ref Yang et al., 2009; cited from earlier work.
Test [2] deals with Escherichia coli (CGMCC 1.2385). Put plainly: Antimicrobial assay (MIC). It is filed as cell-based. The conditions noted are these: CGMCC1, 37°C, 24 h.
Test [3] relates to Staphylococcus aureus (CGMCC 1.230). The test can be described thus: Antimicrobial assay (MIC). Particulars: CGMCC1, 37°C, 24 h, read-out: MIC S. aureus. It is filed as cell-based.
Where [4] appears, read: HL-60, CCK-8, mean ± SD, n = 3, unit from b62 and Table S1 title (there headed MIC), read-out: IC50 HL60.

In brackets after ≈: the same amount, converted by molar mass. Entries after “also recorded” stand apart in the source; their conditions may differ. Like-named read-outs stand apart in the source and are kept apart here. Some results are limits rather than exact numbers.

Here are results for 8 molecules from article PMC10577379, “Isolation of anticancer bioactive secondary metabolites from the sponge-derived endophytic fungi Penicillium sp. and in-silico computational docking approach” (Frontiers in Microbiology, 2023).

For `CC12CCCC(O1)c1c(cc3c(c1O)C(=O)c1c(O)cc(O)cc1C3=O)O2` (stereo not drawn) [Compound 1, averufin], the minimum inhibitory concentration (MIC) (usually the smallest concentration in the dilution series that meets the test's criterion for growth inhibition) in test [1] was above 50 µM. For the same molecule, the IC50 with HL60 cells (HL-60, read-out: IC50 concentration, HL60 cell lines) was 1000 nM; in the test with HL60 cells (setting [4]), 1000 nM; in the test on MCF-10A it was at least 50 µM; in the test on HL7702, 3.57 ± 0.01 µM; in the test with MOLT-4, 5.77 ± 0.01 µM; in the test with HeLa, 8.11 ± 0.01 µM. The IC50 in the test with DU145 was found to be 91.2 ± 0.01 µM; with A549 it was 76.1 ± 0.01 µM; in the test with K562 it was 17.4 ± 0.01 µM; in the test with Huh-7, 3.13 ± 0.01 µM; in the test on MCF-7, 6.71 ± 0.01 µM; in the test with H1975 it was 8.64 ± 0.01 µM. Also, the “anticancer activity toward HL60 cells” value in the test with HL60 cells is reported as “strong anticancer activity”. For the same molecule, the “anticancer effect against cancer cell lines” value with cancer cell lines is recorded as “significant anticancer effect”. The “MIC, antitumor activity toward K562 cell lines” value in the test on K562 cell lines is 72.4 µmol/L (≈ 26.7 µg/mL).

Turning to `CCCCC[C@@H](c1ccc(Oc2cc(C)cc(O)c2)cc1)c1c(O)cc2c(c1O)C(=O)c1cc(O)cc(O)c1C2=O` [Compound 2, aspergilol-A], in test [1], the minimum inhibitory concentration (MIC) is above 50 µM.

Turning to `COC(=O)c1cc(O)cc(OC)c1C(=O)c1c(O)cc(C)cc1O` [Compound 3, sulochrin], the MIC in [1] was above 50 µM.

As for `COc1cc(O)cc2c1C(=O)c1c(O)cc(C)cc1C2=O` [Compound 5, methyl emodin], the minimal inhibitory concentration (MIC) in [1] was above 50 µM. Moreover, the IC50 with HL60 cells (setting [4]) was 13200 ± 10 nM; in the test with MCF-10A, at least 50 µM; in the test with HL7702, 67.2 ± 0.01 µM; with MOLT-4, 13.6 ± 0.01 µM; with HeLa, 24.9 ± 0.01 µM; in the test on DU145, 101.4 ± 0.01 µM. Besides, the IC50 with A549 amounted to 81.3 ± 0.01 µM; with K562, 16.3 ± 0.01 µM; in the test on Huh-7, 25.1 ± 0.01 µM; in the test with MCF-7 it was 54.3 ± 0.01 µM; in the test on H1975 it was 43.5 ± 0.01 µM. In the test with HL60 cells, the “anticancer activity toward HL60 cells” value was “moderate activity”. For the same molecule, the “anticancer effect against cancer cell lines” value in the test on cancer cell lines was “significant anticancer effect; also recorded: weak anticancer effect”. Besides, in the test on SGC-7901 cell line, the “anticancer effect against the SGC-7901 cell line” value is given as “moderate anticancer effect”.

In the case of `Cc1cc(O)cc(Oc2cc(C)cc(O)c2)c1` [Compound 7, diorcinol], in test [1], the minimal inhibitory concentration (MIC) was above 50 µM.

On to `NNC(=O)c1ccncc1` [INH, Isoniazid, reference compound], for which the minimal inhibitory concentration (MIC) in test [1] amounted to 3.98 µM (≈ 0.546 µg/mL).

`CC(=O)O[C@H]1C(=O)[C@@]2(C)[C@H]([C@H](OC(=O)c3ccccc3)[C@]3(O)C[C@H](OC(=O)[C@H](O)[C@@H](NC(=O)c4ccccc4)c4ccccc4)C(C)=C1C3(C)C)[C@]1(OC(C)=O)CO[C@@H]1C[C@@H]2O` [Taxol, reference compound]: the IC50 in the test with HL60 cells (setting [4]) is 2 nM; in the test with MCF-10A, at least 50 µM; in the test with HL7702, 0.003 µM; in the test with MOLT-4, 0.003 µM; with HeLa, 0.003 µM; with DU145, 0.015 ± 0.01 µM. Moreover, the IC50 in the test on A549 came out at 0.024 ± 0.01 µM; in the test with K562, 0.003 µM; in the test with Huh-7, 0.003 µM; in the test with MCF-7 it was 0.002 µM; with H1975 it was 0.014 ± 0.01 µM.

As to `O=C(O)c1cn(C2CC2)c2cc(N3CCNCC3)c(F)cc2c1=O` [ciprofloxacin, Ciprofloxacin], the minimum inhibitory concentration (MIC) in [2] worked out at 0.19 µM (≈ 0.063 µg/mL); in test [3] it was 2.96 µM (≈ 0.981 µg/mL).
